The text below walks through data of US20030215391A1, “Fluorescent agents for real-time measurement of organ function” (priority 2003, published 2003).

Series [1] in a line: Fluorometric analysis (excitation and emission spectra). It counts as physicochemical. The note with it: FIG. 4. As for the experimental part:
For the synthesis of a nile blue-DTPA conjugate, 0.1 g of DTPA dianhydride (ccDPTA) was dissolved in 6 ml of dimethyl sulfoxide (DMSO) in a round bottom flask. Ninety mg of nile blue were dissolved in DMSO and 36 μL of triethyl amine were added, turning the solution purple. The nile blue solution was added drop wise to the solution of ccDTPA while stirring. The solution turned blue. Thirty-eight μL of […] (TEA) were added to the final mixture, turning the solution purple. After mixing, the mixture was heated to 60° C. and stirred for 2 hours. The reaction mixture was then loaded onto a silica gel column and eluted with acetone:ethylacetate. The fractions corresponding to the nile blue-DTPA conjugate were pooled and evaporated, yielding a magenta colored oil. The oil was rechromatographed on a second silica gel column using acetone as eluant. The nile blue-DTPA conjugated fractions were pooled and rotate-evaporated to give a magenta colored oil. […]
The only group of chelating agents known to produce highly soluble and stable lanthanide chelates are the polyamino polyacetic acid analogs. […] The simplest initial approach was to study the fluorescence characteristics of the chelate between Eu and other already commercially available polyaminopoly bis (2-aminoethyl ether) acetic acids. […]

Series [2] in a line: Solubility in aqueous media at physiological pH. The class given is physicochemical. From the text:
where R may be furoic acid, nicotinic acid, picolinic acid, or some other substituted aromatic acid. The subsituted tetrazacyclododecane (STACD) is produced by reacting the amine groups with a brominated acid. 6-Bromo-picolinic acid, 5-bromo-nicotinic acid, and 5-bromo-furoic acid are all appropriate for prepararing a STACD. However, not all of these molecules are soluble in aqueous media at physiological pH. For example, while the tetrafuroic acid derivative is soluble in physiological fluids, the tetranicotinic acid derivative is not. The derivative should be combined with a solubility enhancer, for example, […], to form a salt which is soluble at pH 7. Other solubility enhancers may also be employed to modify the solubility of the STACD complex.
Magnetic Resonance Imaging Contrast Agent: The molecules of the invention, especially TABFTA, STACD, and their derivatives, can also be used as contrast agents for magnetic resonance imaging (MRI). When chelated with lanthanide ions such as gadolinium (Gd^3+) or […], the resulting paramagnetic compound enhances the relaxation of hydrogen protons, increasing signal intensities in MRI imaging (Bousquet, 1988). The increased signal increases the signal-to-noise ratio, reducing imaging time. In addition, the contrast agent may increase specificity in diagnosis. […]

The conditions of series [3]: (Bousquet, 1988); cited from earlier work.
The conditions of series [4]: chelate with europium; previous studies (Hemmila, 1984); cited from earlier work.
For series [5] the following is noted: (Aime, 1995); cited from earlier work.

With `CC[N+](CC)=c1ccc2nc3c(cc(N)c4ccccc43)oc-2c1` [nile blue], the emission fluorescence wavelength in series [1] worked out at 695 nm.
As to “tetraazabycyclofurantetraacetate [TABFTA]”, in series [2], the water solubility result is “water-soluble”.
For the molecule `O=C([O-])CN1CCN(CC(=O)[O-])CCN(CC(=O)O)CCN(CC(=O)[O-])CC1.[Gd+3]` [chelates of DOTA and gadolinium], in series [3], the “distribution after intravenous injection” value is “extracellular space distribution” and the “excretion after intravenous injection” value is reported as “excreted only by glomerular filtration”.
For `O=C(O)CN(CCN(CC(=O)O)CC(=O)O)CC(=O)O` [EDTA], the “fluorescence of the chelate” value in series [4] was “essentially non-fluorescent”.
`O=C(O)CN(CCN(CC(=O)O)CC(=O)O)CCN(CC(=O)O)CC(=O)O` [DTPA, diethylenetriaminepentaacetic acid]: in series [5], the “affinity constant (k)” value is 23.
